Like-named read-outs stand apart in the source and are kept apart here.
How the values were obtained:
[1] = zinc salt of the counterion; reference A, selected literature data for 25–30° C.; cited from earlier work
[2] = From the text: Those materials with high potential to bind to the PZM surface are ZBM's that form only sparingly soluble salts with zinc in water. “Sparingly soluble” refers to zinc salts with 1 gram(g)/100 g water solubility or less. These are the materials that form precipitated surface species on the PZM that interfere with zinc lability. A summary of the solubilities of common zinc salts is shown below: […]

Compound | Solubility (g/100 g water) ([2]; pH 7) | also measured
[O-][Cl+3]([O-])([O-])O [Perchlorate] | – | Solubility (g/100 g water) [1]: 113.5 g/100 g water
O=C(O)c1ccccc1O [Salicylate] | 0.29 | –
Laurate | – | Solubility (g/100 g water) ([2]; zinc salt of the counterion, reference B, commercially sourced materials (Pfaltz & Bauer), water at pH 7 and room temperature, filtered, ICP): 0.012 g/100 g water
Phosphate | 0.0013 | –

From patent US9381148B2, “Composition comprising particulate zinc material with a high relative zinc lability” (priority 2003, dated 2016)
